Reference: article PMC12017303 (Science Advances, 2025)
Values after ≈ are worked out from the molar mass of the structure shown. Where two headings read alike, the source gives them in different places.

Assays:
[1] = male, CD-1, mouse, in vivo; for AUClast / Plasma T½: po, 50 mg/kg
physchem = conditions: pH 7.4, aqueous buffer, kinetic from dmso stock
SARS-CoV-1 M^Pro = SARS-CoV-1 M^Pro (Severe acute respiratory syndrome coronavirus, UniProt P0C6X7); assay: biochemical
HCoV Alpha 229E = assay: organism not typed; format: cell-based, HCoV 229E; parameters: SI50 / SI90: unit not given beside the values
[2] = tested on: SARS-CoV-2 BA.2.86.1 replicon in Vero ACE2 TMPRSS2; assay: microbe, parasite or virus in culture; format: cell-based; conditions: Severe acute respiratory syndrome coronavirus 2, Vero, read-out: Replicon replication in Vero ACE2 TMPRSS2 EC50: BA.2.86.1
in vitro [3] = conditions: plasma
[4] = human, pH 7.4
[5] = tested on: SARS-CoV-2 XBB.1.5 in A549-ACE2^h; assay: microbe, parasite or virus in culture; format: cell-based; conditions: Severe acute respiratory syndrome coronavirus 2, read-out: Viral replication in A549-ACE2^h EC50: XBB.1.5
[6] = format: physicochemical; conditions: 10 μM
P-gp (MDR1) = assay: in vitro; conditions: dog; for Papp B→A: MDCK-MDR1; for Papp A→B: MDCK-MDR1, MDCK AB
in vitro [7] = conditions: mouse, microsomes, pH 7.4
SARS-CoV-2 M^Pro [8] = target: T1, SARS-CoV-2 M^Pro (Severe acute respiratory syndrome coronavirus 2, UniProt P0DTD1); format: biochemical
[9] = tested on: panel of 40 receptors, ion channels (including the hERG channel), and serine and cysteine proteases
[10] = tested on: human cytochrome P450 (CYP) isoforms
SARS-CoV Urbani = assay: microbe, parasite or virus in culture; format: cell-based; conditions: Severe acute respiratory syndrome coronavirus, Vero C1008
[11] = target: SARS-CoV-2 M^Pro (Cys^145) (Severe acute respiratory syndrome coronavirus 2, UniProt P0DTD1); format: binding
HCoV Beta OC43 = assay: microbe, parasite or virus in culture; format: cell-based; parameters: SI90 / SI50: unit not given beside the values
[12] = tested on: SARS-CoV-2 EG.5.1 in A549-ACE2^h; assay: microbe, parasite or virus in culture; format: cell-based; conditions: Severe acute respiratory syndrome coronavirus 2, read-out: Viral replication in A549-ACE2^h EC50: EG.5.1
[13] = tested on: SARS-CoV-2 XBB.1.16 in A549-ACE2^h; assay: microbe, parasite or virus in culture; format: cell-based; conditions: Severe acute respiratory syndrome coronavirus 2, read-out: Viral replication in A549-ACE2^h EC50: XBB.1.16
in vivo [14] = conditions: male, CD-1, mouse; for AUC(0-t): AUClast; for Vd: Vss
[15] = tested on: SARS-CoV-2 WA.1 (icSARS-CoV-2-mNG) in A549-ACE2^h; assay: microbe, parasite or virus in culture; format: cell-based; conditions: Severe acute respiratory syndrome coronavirus 2, read-out: Viral replication in A549-ACE2^h EC50: WA.1
[16] = mouse, pH 7.4
[17] = tested on: SARS-CoV-2 WA.1 replicon in Vero ACE2 TMPRSS2; assay: microbe, parasite or virus in culture; format: cell-based; conditions: Severe acute respiratory syndrome coronavirus 2, Vero, read-out: Replicon replication in Vero ACE2 TMPRSS2 EC50: WA.1
[18] = tested on: SARS-CoV-2 BA.2 (omicron); assay: microbe, parasite or virus in culture; format: cell-based; parameters: SI50 / SI90: unit not given beside the values
MERS-CoV EMC = assay: microbe, parasite or virus in culture; format: cell-based; conditions: Middle East respiratory syndrome-related coronavirus, Vero C1008
in vitro [19] = conditions: human, microsomes, pH 7.4
in vitro [20] = conditions: PAMPA, pH 7.4
SARS-CoV-2 M^Pro [21] = target: T1, SARS-CoV-2 M^Pro; assay: biochemical
SARS-CoV-2 M^Pro [22] = target: T1, SARS-CoV-2 M^Pro; assay: biochemical; remark: listed apart in the source
CYP2C8 = CYP2C8 (Homo sapiens, UniProt P10632); conditions: 10 μM
Sequence of CYP2C8 (P10632 whole entry): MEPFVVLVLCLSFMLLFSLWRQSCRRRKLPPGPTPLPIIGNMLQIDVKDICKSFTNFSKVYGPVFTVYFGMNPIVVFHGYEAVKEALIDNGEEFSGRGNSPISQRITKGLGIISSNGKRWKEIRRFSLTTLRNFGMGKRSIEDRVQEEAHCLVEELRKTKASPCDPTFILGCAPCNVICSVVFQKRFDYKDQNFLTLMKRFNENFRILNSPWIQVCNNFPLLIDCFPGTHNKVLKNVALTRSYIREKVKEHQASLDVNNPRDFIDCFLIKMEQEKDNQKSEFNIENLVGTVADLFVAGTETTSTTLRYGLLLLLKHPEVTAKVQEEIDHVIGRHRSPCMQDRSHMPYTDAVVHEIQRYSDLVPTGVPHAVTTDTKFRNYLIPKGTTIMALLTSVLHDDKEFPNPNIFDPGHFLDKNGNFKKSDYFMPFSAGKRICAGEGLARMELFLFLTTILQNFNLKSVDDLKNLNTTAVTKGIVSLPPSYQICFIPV

[23] = mouse, in vivo, po
in vivo [24] = conditions: mouse
[25] = tested on: SARS-CoV-2 B.1.617.2 (delta); format: cell-based; parameters: SI50 / SI90: unit not given beside the values
[26] = pH 7.4, plasma protein binding (PPB)
[27] = Severe acute respiratory syndrome coronavirus 2, Vero C1008

C#CCn1c(-c2ccc(Cl)c(Cl)c2)c(-n2nnc3cc(F)c(F)cc32)c(=O)n(-c2cncc3ccccc23)c1=O [AVI-4694]
Mouse F [1]: 64 | AUClast [1]: 56500 ng·h/mL | Plasma T½ [1]: 1.87 h | solubility (physchem): 2.4 µM (≈ 1.38 µg/mL) | IC50 (SARS-CoV-1 M^Pro): 66 nM | EC50 (HCoV Alpha 229E; Huh-7): > 1600 nM | EC90 (HCoV Alpha 229E; Huh-7): > 1600 nM | EC50 [2]: 12 nM | fraction unbound (in vitro [3]; pH 7.4, PPB): 0.003 | fraction unbound (in vitro [3]; [26]): < 0.01 | HLM T1/2 [4]: > 2 h | EC50 [5]: 0.3 nM | particle formation by dynamic light scattering (DLS) [6]: formed particles | Papp B→A (P-gp (MDR1)): 13.8 ×10⁻⁶ cm/s | Papp A→B (P-gp (MDR1)): 8.2 ×10⁻⁶ cm/s | half-life (in vitro [7]): 1.6 h | M^Pro activity after dialysis (SARS-CoV-2 M^Pro [8]): activity was not regained | off-target activity across panel, result in words [9]: low-micromolar inhibition of nine enzymes/receptors in the panel | inhibition of several CYP isoforms ([10]; 10 μM): > 50% | EC50 (SARS-CoV Urbani): 52 nM | EC90 (SARS-CoV Urbani): 91 nM | covalent adduct by whole protein MS [11]: mass shifts consistent with modification at a single site | EC50 (HCoV Beta OC43; Betacoronavirus 1, OC43): 55 nM | EC90 (HCoV Beta OC43; Betacoronavirus 1, OC43): 61 nM | EC50 [12]: 0.22 nM | EC50 [13]: 0.32 nM | bioavailability (in vivo [14]; F): 63.5% | MRT inf (in vivo [14]; iv, 10 mg/kg): 2.6 h | clearance (in vivo [14]; iv, 10 mg/kg): 9.37 mL/min/kg | half-life (in vivo [14]; iv, 10 mg/kg): 1.72 h | AUC(0-inf) (in vivo [14]; iv, 10 mg/kg, AUCINF): 17800 ng·h/mL | AUC(0-t) (in vivo [14]; iv, 10 mg/kg): 17300 ng·h/mL | Vd (in vivo [14]; iv, 10 mg/kg): 1.46 L/kg | half-life (in vivo [14]; po, 50 mg/kg): 1.87 h | AUC(0-inf) (in vivo [14]; po, 50 mg/kg, AUCINF): 56500 ng·h/mL | AUC(0-inf) (in vivo [14]; po, 50 mg/kg, AUCinf): 56500 ng·h/mL | AUC(0-t) (in vivo [14]; po, 50 mg/kg): 56500 ng·h/mL | Cmax (in vivo [14]; po, 50 mg/kg, CMax): 5770 ng/mL | Cmax (in vivo [14]; po, 50 mg/kg, Cmax): 5770 ng/mL | Tmax (in vivo [14]; po, 50 mg/kg, TMax): 4 h | Tmax (in vivo [14]; po, 50 mg/kg, Tmax): 4 h | EC50 [15]: 71 nM | MLM T1/2 [16]: > 2 h | EC50 [17]: 13 nM | EC50 [18, 27]: 50 nM | EC90 [18, 27]: 45 nM | EC50 (MERS-CoV EMC): 45 nM

C#CCn1c(-c2cccc(Cl)c2)c(-n2nnc3ccccc32)c(=O)n(-c2cncc3ccccc23)c1=O [AVI-4692]
half-life (in vitro [19]): > 2 h | IC50 (SARS-CoV-1 M^Pro): 120 nM | EC50 [2]: 27 nM | Papp (in vitro [20]): 31.8 ×10⁻⁶ cm/s | fraction unbound (in vitro [3]; [26]): < 0.01 | IC50 (SARS-CoV-2 M^Pro [21]): 37 nM | half-life (in vitro [7]): > 2 h | M^Pro activity after dialysis (SARS-CoV-2 M^Pro [8]): activity was not regained | kinact/KI (SARS-CoV-2 M^Pro [22]): 27000 M⁻¹ s⁻¹ | CYP inhibition, result in words ([10]; 10 μM): somewhat more potent inhibitor of both CYP2C8 and CYP3A4 | covalent adduct by whole protein MS [11]: mass shifts consistent with modification at a single site | EC50 [15]: 6.8 nM | EC50 [17]: 26 nM

C#CCn1c(C)c(-n2nnc3cc(F)c(F)cc32)c(=O)n(-c2cncc3ccccc23)c1=O [AVI-4773]
Mouse F [1]: 110 | free concentration in plasma [1]: 4.045 µM | AUClast [1]: 94700 ng·h/mL | Plasma T½ [1]: 13 h | half-life (in vitro [19]): > 2 h | solubility (physchem): 431 µM (≈ 192 µg/mL) | CYP2C8 inhibition (CYP2C8): ~ 45% | IC50 (SARS-CoV-1 M^Pro): 95 nM | EC50 [2]: 49 nM | exposure in BALF [23]: ~ 4400 nM | fraction unbound (in vitro [3]; pH 7.4, PPB): 0.19 | fraction unbound (in vitro [3]; [26]): 0.17 | Papp B→A (P-gp (MDR1)): 70.8 ×10⁻⁶ cm/s | Papp A→B (P-gp (MDR1)): 17.8 ×10⁻⁶ cm/s | half-life (in vitro [7]): > 2 h | M^Pro activity after dialysis (SARS-CoV-2 M^Pro [8]): activity was not regained | inhibition across the CYP panel ([10]; human, pH 7.4): ≤ 25% | covalent adduct by whole protein MS [11]: mass shifts consistent with modification at a single site | Kp (in vivo [24]): ~0.08 | bioavailability (in vivo [14]; F): 110% | MRT inf (in vivo [14]; iv, 10 mg/kg): 2.06 h | clearance (in vivo [14]; iv, 10 mg/kg): 9.57 mL/min/kg | half-life (in vivo [14]; iv, 10 mg/kg): 1.22 h | AUC(0-inf) (in vivo [14]; iv, 10 mg/kg, AUCINF): 17400 ng·h/mL | AUC(0-t) (in vivo [14]; iv, 10 mg/kg): 17200 ng·h/mL | Vd (in vivo [14]; iv, 10 mg/kg): 1.18 L/kg | bioavailability (in vivo [14]; oral bioavailability (%F)): > 100% | half-life (in vivo [14]; po, 50 mg/kg): 13 h | AUC(0-inf) (in vivo [14]; po, 50 mg/kg, AUCINF): 273000 ng·h/mL | AUC(0-inf) (in vivo [14]; po, 50 mg/kg, AUCinf): 272000 ng·h/mL | AUC(0-t) (in vivo [14]; po, 50 mg/kg): 94700 ng·h/mL | Cmax (in vivo [14]; po, 50 mg/kg, CMax): 14900 ng/mL | Cmax (in vivo [14]; po, 50 mg/kg, Cmax): 14900 ng/mL | Tmax (in vivo [14]; po, 50 mg/kg, TMax): 0.5 h | Tmax (in vivo [14]; po, 50 mg/kg, Tmax): 0.5 h | EC50 [15]: 19 nM | EC50 [17]: 60 nM

O=c1nc(NO)ccn1[C@@H]1O[C@H](CO)[C@@H](O)[C@H]1O [EIDD-1931, reference compound]
CC50 (Huh7): > 10000 nM | SI50 (HCoV Alpha 229E): > 23 | SI90 (HCoV Alpha 229E): > 27 | EC50 (HCoV Alpha 229E; read-out: EC50): 440 nM | EC90 (HCoV Alpha 229E; read-out: EC90): 370 nM | CC50 (Rhabdomyosarcoma): 6100 nM | SI50 (HCoV Beta OC43): 170 | SI90 (HCoV Beta OC43): 190 | EC50 (HCoV Beta OC43; read-out: EC50): 35 nM | EC90 (HCoV Beta OC43; read-out: EC90): 32 nM | EC50 [25]: 170 nM | EC90 [25]: 50 nM | SI50 [25]: 210 | SI90 [25]: 720 | SI50 [18]: 810 | SI90 [18]: 1000 | EC50 ([18]; read-out: EC50): 53 nM | EC90 ([18]; read-out: EC90): 43 nM
